# Data reported in article PMC6891286, “Towards the Development of an In vivo Chemical Probe for Cyclin G Associated Kinase (GAK)” (Molecules, 2019).
# Assays:
# Assay in all cases: KINOMEscan
# Format in all cases: binding
# Details in all cases: 35 at 1 µM; read-out: % inhibition
# [1] = target: T1, ABL1(F317L)-nonphosphorylated (Homo sapiens, UniProt P00519, F317L)
# T1 construct: purchased Eurofins DiscoverX (KINOMEscan)
# Method: (§1) KinomeScan Assay on 35 was performed as previously described at EuroFins DiscoverX (Fremont, CA, USA).
# ANKK1 = target: T2, ANKK1 (Homo sapiens, UniProt Q8NFD2)
# T2 construct: purchased Eurofins DiscoverX (KINOMEscan)
# Method: as §1
# AXL = target: T3, AXL (Homo sapiens, UniProt P30530)
# T3 construct: purchased Eurofins DiscoverX (KINOMEscan)
# Method: as §1
# BMPR1A = target: T4, BMPR1A (Homo sapiens, UniProt P36894)
# T4 construct: purchased Eurofins DiscoverX (KINOMEscan)
# Method: as §1
# CDK9 = target: T5, CDK9 (Homo sapiens, UniProt P50750)
# T5 construct: purchased Eurofins DiscoverX (KINOMEscan)
# Method: as §1
# CDKL2 = target: T6, CDKL2 (Homo sapiens, UniProt Q92772)
# T6 construct: purchased Eurofins DiscoverX (KINOMEscan)
# Method: as §1
# CHEK1 = target: T7, CHEK1 (Homo sapiens, UniProt O14757)
# T7 construct: purchased Eurofins DiscoverX (KINOMEscan)
# Method: as §1
# CLK3 = target: T8, CLK3 (Homo sapiens, UniProt P49761)
# T8 construct: purchased Eurofins DiscoverX (KINOMEscan)
# Method: as §1
# CSNK1G2 = target: T9, CSNK1G2 (Homo sapiens, UniProt P78368)
# T9 construct: purchased Eurofins DiscoverX (KINOMEscan)
# Method: as §1
# DAPK2 = target: T10, DAPK2 (Homo sapiens, UniProt Q9UIK4)
# T10 construct: purchased Eurofins DiscoverX (KINOMEscan)
# Method: as §1
# DAPK3 = target: T11, DAPK3 (Homo sapiens, UniProt O43293)
# T11 construct: purchased Eurofins DiscoverX (KINOMEscan)
# Method: as §1
# EGFR(G719S) = target: T12, EGFR(G719S) (Homo sapiens, UniProt P00533, G719S)
# T12 construct: purchased Eurofins DiscoverX (KINOMEscan)
# Method: as §1
# EGFR(L858R,T790M) = target: T13, EGFR(L858R,T790M) (Homo sapiens, UniProt P00533, L858R/T790M)
# T13 construct: purchased Eurofins DiscoverX (KINOMEscan)
# Method: as §1
# EPHA4 = target: T14, EPHA4 (Homo sapiens, UniProt P54764)
# T14 construct: purchased Eurofins DiscoverX (KINOMEscan)
# Method: as §1
# ERK4 = target: T15, ERK4 (Homo sapiens, UniProt P31152)
# T15 construct: purchased Eurofins DiscoverX (KINOMEscan)
# Method: as §1
# FGR = target: T16, FGR (Homo sapiens, UniProt P09769)
# T16 construct: purchased Eurofins DiscoverX (KINOMEscan)
# Method: as §1
# FLT3(D835Y) = target: T17, FLT3(D835Y) (Homo sapiens, UniProt P36888, D835Y)
# T17 construct: purchased Eurofins DiscoverX (KINOMEscan)
# Method: as §1
# FLT3(R834Q) = target: T18, FLT3(R834Q) (Homo sapiens, UniProt P36888, R834Q)
# T18 construct: purchased Eurofins DiscoverX (KINOMEscan)
# Method: as §1
# [2] = target: T19, JAK1(JH2domain-pseudokinase) (Homo sapiens, UniProt P23458)
# T19 construct: JAK1(JH2domain-pseudokinase); purchased Eurofins DiscoverX (KINOMEscan)
# Method: as §1
# [3] = target: T20, JAK3(JH1domain-catalytic) (Homo sapiens, UniProt P52333)
# T20 construct: JAK3(JH1domain-catalytic); purchased Eurofins DiscoverX (KINOMEscan)
# Method: as §1
# LIMK1 = target: T21, LIMK1 (Homo sapiens, UniProt P53667)
# T21 construct: purchased Eurofins DiscoverX (KINOMEscan)
# Method: as §1
# LOK = target: T22, LOK (Homo sapiens, UniProt O94804)
# T22 construct: purchased Eurofins DiscoverX (KINOMEscan)
# Method: as §1
# LRRK2(G2019S) = target: T23, LRRK2(G2019S) (Homo sapiens, UniProt Q5S007, G2019S)
# T23 construct: purchased Eurofins DiscoverX (KINOMEscan)
# Method: as §1
# MAP3K2 = target: T24, MAP3K2 (Homo sapiens, UniProt Q9Y2U5)
# T24 construct: purchased Eurofins DiscoverX (KINOMEscan)
# Method: as §1
# MEK4 = target: T25, MEK4 (Homo sapiens, UniProt P45985)
# T25 construct: purchased Eurofins DiscoverX (KINOMEscan)
# Method: as §1
# MERTK = target: T26, MERTK (Homo sapiens, UniProt Q12866)
# T26 construct: purchased Eurofins DiscoverX (KINOMEscan)
# Method: as §1
# NEK1 = target: T27, NEK1 (Homo sapiens, UniProt Q96PY6)
# T27 construct: purchased Eurofins DiscoverX (KINOMEscan)
# Method: as §1
# NEK11 = target: T28, NEK11 (Homo sapiens, UniProt Q8NG66)
# T28 construct: purchased Eurofins DiscoverX (KINOMEscan)
# Method: as §1
# PCTK2 = target: T29, PCTK2 (Homo sapiens, UniProt Q00537)
# T29 construct: purchased Eurofins DiscoverX (KINOMEscan)
# Method: as §1
# PKAC-beta = target: T30, PKAC-beta (Homo sapiens, UniProt P22694)
# T30 construct: purchased Eurofins DiscoverX (KINOMEscan)
# Method: as §1
# PRKD1 = target: T31, PRKD1 (Homo sapiens, UniProt Q15139)
# T31 construct: purchased Eurofins DiscoverX (KINOMEscan)
# Method: as §1
# PRKD3 = target: T32, PRKD3 (Homo sapiens, UniProt O94806)
# T32 construct: purchased Eurofins DiscoverX (KINOMEscan)
# Method: as §1
# RIOK2 = target: T33, RIOK2 (Homo sapiens, UniProt Q9BVS4)
# T33 construct: purchased Eurofins DiscoverX (KINOMEscan)
# Method: as §1
# RIPK4 = target: T34, RIPK4 (Homo sapiens, UniProt P57078)
# T34 construct: purchased Eurofins DiscoverX (KINOMEscan)
# Method: as §1
# [4] = target: T35, RPS6KA4(Kin.Dom.1-N-terminal) (Homo sapiens, UniProt O75676)
# T35 construct: RPS6KA4(Kin.Dom.1-N-terminal); purchased Eurofins DiscoverX (KINOMEscan)
# Method: as §1
# SNARK = target: T36, SNARK (Homo sapiens, UniProt Q9H093)
# T36 construct: purchased Eurofins DiscoverX (KINOMEscan)
# Method: as §1
# SNRK = target: T37, SNRK (Homo sapiens, UniProt Q9NRH2)
# T37 construct: purchased Eurofins DiscoverX (KINOMEscan)
# Method: as §1
# TEC = target: T38, TEC (Homo sapiens, UniProt P42680)
# T38 construct: purchased Eurofins DiscoverX (KINOMEscan)
# Method: as §1
# TRKA = target: T39, TRKA (Homo sapiens, UniProt P04629)
# T39 construct: purchased Eurofins DiscoverX (KINOMEscan)
# Method: as §1
# YANK2 = target: T40, YANK2 (Homo sapiens, UniProt Q9NY57)
# T40 construct: purchased EuroFins DiscoverX (Fremont, CA, USA)
# Method: as §1
# YSK1 = target: T41, YSK1 (Homo sapiens, UniProt O00506)
# T41 construct: purchased EuroFins DiscoverX (Fremont, CA, USA)
# Method: as §1
# T15 sequence (P31152 whole entry): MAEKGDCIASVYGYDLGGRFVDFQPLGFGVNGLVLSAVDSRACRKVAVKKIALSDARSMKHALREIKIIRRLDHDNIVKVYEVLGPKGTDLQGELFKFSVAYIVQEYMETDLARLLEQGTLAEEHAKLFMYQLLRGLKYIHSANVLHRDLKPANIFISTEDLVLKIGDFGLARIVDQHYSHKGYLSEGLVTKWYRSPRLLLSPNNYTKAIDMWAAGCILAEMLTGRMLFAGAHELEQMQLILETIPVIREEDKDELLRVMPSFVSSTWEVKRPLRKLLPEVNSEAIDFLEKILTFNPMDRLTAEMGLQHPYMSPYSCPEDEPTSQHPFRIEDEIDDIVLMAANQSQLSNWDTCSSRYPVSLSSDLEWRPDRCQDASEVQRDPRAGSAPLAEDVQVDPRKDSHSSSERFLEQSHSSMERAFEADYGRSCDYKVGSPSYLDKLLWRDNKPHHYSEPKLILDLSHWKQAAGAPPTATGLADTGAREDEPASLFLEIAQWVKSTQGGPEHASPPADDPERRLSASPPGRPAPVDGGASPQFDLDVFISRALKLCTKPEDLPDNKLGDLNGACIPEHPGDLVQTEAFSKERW
# T41 sequence (O00506 whole entry): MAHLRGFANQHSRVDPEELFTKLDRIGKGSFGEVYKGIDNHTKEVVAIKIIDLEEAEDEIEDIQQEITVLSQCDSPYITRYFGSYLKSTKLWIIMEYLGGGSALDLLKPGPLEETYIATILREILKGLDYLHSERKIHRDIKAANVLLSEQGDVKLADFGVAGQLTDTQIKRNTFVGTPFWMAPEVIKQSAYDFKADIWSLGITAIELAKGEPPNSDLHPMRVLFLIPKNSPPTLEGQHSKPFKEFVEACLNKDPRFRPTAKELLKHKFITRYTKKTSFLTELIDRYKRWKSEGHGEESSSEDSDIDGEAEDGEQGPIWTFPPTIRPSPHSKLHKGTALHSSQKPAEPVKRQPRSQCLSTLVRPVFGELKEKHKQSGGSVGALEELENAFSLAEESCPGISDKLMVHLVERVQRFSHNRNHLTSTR
# T23 sequence (Q5S007 whole entry G2019S): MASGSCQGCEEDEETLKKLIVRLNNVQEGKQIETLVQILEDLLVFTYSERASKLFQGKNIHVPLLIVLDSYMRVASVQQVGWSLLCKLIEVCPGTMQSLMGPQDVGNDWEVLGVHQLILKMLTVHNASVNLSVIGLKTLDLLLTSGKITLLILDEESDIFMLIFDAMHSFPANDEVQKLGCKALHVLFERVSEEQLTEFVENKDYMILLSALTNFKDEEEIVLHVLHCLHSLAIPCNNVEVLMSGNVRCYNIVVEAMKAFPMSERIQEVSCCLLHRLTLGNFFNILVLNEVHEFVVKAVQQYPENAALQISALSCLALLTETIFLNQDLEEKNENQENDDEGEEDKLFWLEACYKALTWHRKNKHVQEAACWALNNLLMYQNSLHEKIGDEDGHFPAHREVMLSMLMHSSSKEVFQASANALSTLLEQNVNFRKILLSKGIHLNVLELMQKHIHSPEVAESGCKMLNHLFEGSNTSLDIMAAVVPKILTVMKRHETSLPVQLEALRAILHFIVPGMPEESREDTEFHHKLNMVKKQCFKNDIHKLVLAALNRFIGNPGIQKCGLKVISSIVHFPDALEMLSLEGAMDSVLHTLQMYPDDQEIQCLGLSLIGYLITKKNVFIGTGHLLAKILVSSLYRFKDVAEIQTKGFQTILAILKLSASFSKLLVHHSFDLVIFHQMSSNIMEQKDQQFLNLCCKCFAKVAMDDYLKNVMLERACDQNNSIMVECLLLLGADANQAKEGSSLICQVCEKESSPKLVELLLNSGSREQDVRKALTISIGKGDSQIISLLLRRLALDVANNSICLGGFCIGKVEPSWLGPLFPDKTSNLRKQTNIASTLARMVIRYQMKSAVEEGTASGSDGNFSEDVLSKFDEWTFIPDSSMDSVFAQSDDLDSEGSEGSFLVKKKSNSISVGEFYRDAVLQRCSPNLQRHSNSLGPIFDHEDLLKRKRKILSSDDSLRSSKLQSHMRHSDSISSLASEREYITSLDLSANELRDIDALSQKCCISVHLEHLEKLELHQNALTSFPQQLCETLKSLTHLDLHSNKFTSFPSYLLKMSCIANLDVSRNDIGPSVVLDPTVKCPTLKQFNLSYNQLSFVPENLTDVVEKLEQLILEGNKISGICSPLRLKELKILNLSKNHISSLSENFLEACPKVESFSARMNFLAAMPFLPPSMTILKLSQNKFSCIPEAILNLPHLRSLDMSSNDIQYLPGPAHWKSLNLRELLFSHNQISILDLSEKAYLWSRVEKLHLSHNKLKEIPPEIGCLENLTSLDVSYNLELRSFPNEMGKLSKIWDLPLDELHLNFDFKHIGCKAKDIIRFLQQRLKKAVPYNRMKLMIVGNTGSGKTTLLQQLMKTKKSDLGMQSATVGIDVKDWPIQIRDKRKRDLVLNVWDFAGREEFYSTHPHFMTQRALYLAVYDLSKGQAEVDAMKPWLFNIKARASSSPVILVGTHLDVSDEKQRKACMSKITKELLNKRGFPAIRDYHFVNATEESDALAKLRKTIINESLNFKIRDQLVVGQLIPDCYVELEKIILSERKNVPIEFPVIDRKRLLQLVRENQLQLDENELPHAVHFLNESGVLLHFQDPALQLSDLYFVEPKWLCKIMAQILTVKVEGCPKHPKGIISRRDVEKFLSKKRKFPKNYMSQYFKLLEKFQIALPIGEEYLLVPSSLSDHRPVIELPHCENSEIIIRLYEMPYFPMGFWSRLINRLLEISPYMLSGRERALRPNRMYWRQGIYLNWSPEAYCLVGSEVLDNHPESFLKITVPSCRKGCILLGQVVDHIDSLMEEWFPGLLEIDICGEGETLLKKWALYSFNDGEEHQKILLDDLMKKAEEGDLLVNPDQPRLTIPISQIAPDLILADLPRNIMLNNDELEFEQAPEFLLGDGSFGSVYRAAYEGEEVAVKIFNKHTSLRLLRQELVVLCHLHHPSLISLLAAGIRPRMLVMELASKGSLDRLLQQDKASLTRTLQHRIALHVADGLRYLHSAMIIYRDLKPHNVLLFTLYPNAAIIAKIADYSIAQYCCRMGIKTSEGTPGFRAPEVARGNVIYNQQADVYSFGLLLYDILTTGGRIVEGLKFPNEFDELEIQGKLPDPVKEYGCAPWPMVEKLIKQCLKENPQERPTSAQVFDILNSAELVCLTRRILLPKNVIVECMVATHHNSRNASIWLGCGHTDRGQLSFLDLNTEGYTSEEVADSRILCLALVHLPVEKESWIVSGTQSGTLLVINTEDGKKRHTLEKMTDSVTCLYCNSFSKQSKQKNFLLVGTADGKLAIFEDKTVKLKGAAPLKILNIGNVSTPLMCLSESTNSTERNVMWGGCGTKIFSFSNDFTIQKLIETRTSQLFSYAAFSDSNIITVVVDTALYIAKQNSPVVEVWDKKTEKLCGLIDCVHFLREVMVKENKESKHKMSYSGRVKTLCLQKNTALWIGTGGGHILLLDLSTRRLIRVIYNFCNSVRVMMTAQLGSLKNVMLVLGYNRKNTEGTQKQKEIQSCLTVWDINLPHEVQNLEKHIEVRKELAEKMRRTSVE
# T31 sequence (Q15139 whole entry): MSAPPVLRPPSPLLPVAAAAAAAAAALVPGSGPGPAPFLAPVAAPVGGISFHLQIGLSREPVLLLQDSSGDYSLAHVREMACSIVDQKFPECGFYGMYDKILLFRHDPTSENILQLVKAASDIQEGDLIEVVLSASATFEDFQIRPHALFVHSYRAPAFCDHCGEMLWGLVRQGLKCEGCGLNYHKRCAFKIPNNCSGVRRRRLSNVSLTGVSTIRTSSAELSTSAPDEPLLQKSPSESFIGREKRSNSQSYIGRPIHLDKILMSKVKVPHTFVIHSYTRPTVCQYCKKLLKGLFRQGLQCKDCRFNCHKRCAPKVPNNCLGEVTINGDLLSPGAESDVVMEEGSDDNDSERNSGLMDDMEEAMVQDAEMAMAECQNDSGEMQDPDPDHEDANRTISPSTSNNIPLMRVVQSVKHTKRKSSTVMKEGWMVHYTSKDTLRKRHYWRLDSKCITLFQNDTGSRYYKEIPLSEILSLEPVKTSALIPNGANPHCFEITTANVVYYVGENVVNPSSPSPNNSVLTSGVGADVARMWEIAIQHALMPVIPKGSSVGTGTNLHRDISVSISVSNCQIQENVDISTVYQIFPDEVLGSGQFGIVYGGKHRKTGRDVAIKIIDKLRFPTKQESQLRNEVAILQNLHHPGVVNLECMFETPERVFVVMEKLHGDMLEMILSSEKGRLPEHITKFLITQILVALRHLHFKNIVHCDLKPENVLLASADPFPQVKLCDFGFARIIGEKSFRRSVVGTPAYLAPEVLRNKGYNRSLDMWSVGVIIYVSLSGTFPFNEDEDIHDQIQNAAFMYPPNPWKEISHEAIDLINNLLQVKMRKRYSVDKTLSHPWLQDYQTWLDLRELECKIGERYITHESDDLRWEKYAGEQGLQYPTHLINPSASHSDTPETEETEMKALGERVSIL
# T8 sequence (P49761 whole entry): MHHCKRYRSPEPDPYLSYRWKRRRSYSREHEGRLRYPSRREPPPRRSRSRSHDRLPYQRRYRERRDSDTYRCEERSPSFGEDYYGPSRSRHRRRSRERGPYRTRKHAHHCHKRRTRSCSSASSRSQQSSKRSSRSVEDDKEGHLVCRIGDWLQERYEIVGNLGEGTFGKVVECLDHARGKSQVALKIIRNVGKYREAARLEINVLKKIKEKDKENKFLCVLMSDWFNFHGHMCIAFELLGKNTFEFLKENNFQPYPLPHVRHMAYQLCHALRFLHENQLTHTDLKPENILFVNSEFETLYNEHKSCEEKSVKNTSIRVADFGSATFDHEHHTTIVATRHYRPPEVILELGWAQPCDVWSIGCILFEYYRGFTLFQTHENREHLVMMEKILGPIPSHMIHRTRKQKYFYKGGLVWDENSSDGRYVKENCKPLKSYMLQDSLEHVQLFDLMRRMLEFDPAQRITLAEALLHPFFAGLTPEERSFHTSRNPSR
compound,measurement,setting,value
"Brc1ccc2nccc(Nc3ccc4cn[nH]c4c3)c2c1 [Compound 35, 6-Bromo-N-(1H-indazol-6-yl)quinolin-4-amine]",activity at 1 µM,[1],78%
same,activity at 1 µM,ANKK1,100%
same,activity at 1 µM,AXL,100%
same,activity at 1 µM,BMPR1A,100%
same,activity at 1 µM,CDK9,75%
same,activity at 1 µM,CDKL2,100%
same,activity at 1 µM,CHEK1,100%
same,activity at 1 µM,CLK3,100%
same,activity at 1 µM,CSNK1G2,100%
same,activity at 1 µM,DAPK2,100%
same,activity at 1 µM,DAPK3,88%
same,activity at 1 µM,EGFR(G719S),97%
same,activity at 1 µM,"EGFR(L858R,T790M)",98%
same,activity at 1 µM,EPHA4,100%
same,activity at 1 µM,ERK4,97%
same,activity at 1 µM,FGR,100%
same,activity at 1 µM,FLT3(D835Y),100%
same,activity at 1 µM,FLT3(R834Q),83%
same,activity at 1 µM,[2],88%
same,activity at 1 µM,[3],83%
same,activity at 1 µM,LIMK1,100%
same,activity at 1 µM,LOK,100%
same,activity at 1 µM,LRRK2(G2019S),73%
same,activity at 1 µM,MAP3K2,100%
same,activity at 1 µM,MEK4,100%
same,activity at 1 µM,MERTK,85%
same,activity at 1 µM,NEK1,100%
same,activity at 1 µM,NEK11,100%
same,activity at 1 µM,PCTK2,100%
same,activity at 1 µM,PKAC-beta,100%
same,activity at 1 µM,PRKD1,100%
same,activity at 1 µM,PRKD3,100%
same,activity at 1 µM,RIOK2,100%
same,activity at 1 µM,RIPK4,100%
same,activity at 1 µM,[4],100%
same,activity at 1 µM,SNARK,100%
same,activity at 1 µM,SNRK,100%
same,activity at 1 µM,TEC,100%
same,activity at 1 µM,TRKA,100%
same,activity at 1 µM,YANK2,100%
same,activity at 1 µM,YSK1,100%
